The compounds below were run on production of TNF by monocytes activated with bacterial lipopolysaccharide (LPS) (assay: Lipopolysaccharide-activated monocyte TNF production assay). Details: Homo sapiens; whole blood monocyte assay (LPS induced TNF release).
Assay type: cell-based
In short: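 Adherent human PBMC-derived monocytes preincubated 60 min with nine two-fold compound dilutions, then stimulated with E. coli K532 LPS (30 ng/mL in the added medium) for 4 h at 37 °C. Supernatant TNF measured by sandwich ELISA; IC50 is the compound concentration halving TNF production, from second-order polynomial fits.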

Q: `Cc1ccc(C(=O)NC2CC2)cc1-c1ccc2c(N3C[C@@H](C)N(CC(F)(F)F)C[C@@H]3C)nncc2c1` [Example 393, N-cyclopropyl-3-{1-[(2S,5R)-2,5-dimethyl-4-(2,2,2-trifluoroethyl)piperazin-1-yl]phthalazin-6-yl}-4-methylbenzamide] was tested. Which IC50 did it give?
A: ≤ 5 µM

Q: With `Cc1ccc(C(N)=O)cc1-c1ccc2c(N3[C@H](C)CC[C@H]3C)nncc2c1` [Example 394, 3-{1-[(2R,5R)-2,5-dimethylpyrrolidin-1-yl]phthalazin-6-yl}-4-methylbenzamide] as the compound, how does the IC50 read?
A: ≤ 5 µM

Q: For `Cc1ccc(C(=O)NC2CC2)cc1-c1ccc2c(N3[C@H](C)CC[C@H]3C)nncc2c1` [Example 395, N-cyclopropyl-3-{1-[(2R,5R)-2,5-dimethylpyrrolidin-1-yl]phthalazin-6-yl}-4-methylbenzamide], which IC50 is on record?
A: ≤ 5 µM

Q: With `CNc1noc2c(-c3ccc4c(-c5ccccc5C)nncc4c3)c(C)ccc12` [Example 396, N,6-dimethyl-7-[1-(2-methylphenyl)phthalazin-6-yl]-1,2-benzisoxazol-3-amine] as the compound, how does the IC50 read?
A: ≤ 5 µM

Q: With `CNc1noc2c(-c3ccc4c(N5CCOC[C@@H]5C)nncc4c3)c(C)ccc12` [Example 397, N,6-dimethyl-7-(1-((S)-3-methylmorpholino)phthalazin-6-yl)benzo[d]isoxazol-3-amine] as the compound, how does the IC50 read?
A: ≤ 5 µM

Q: Which IC50 does the source give for `Cc1ccccc1-c1ccc2c(N3CCOCC3c3ccc(F)cc3)nncc2c1` (stereo not drawn) [Example 398, 1-[3-(4-fluorophenyl)morpholin-4-yl]-6-(2-methylphenyl)phthalazine] here?
A: ≤ 5 µM

Q: With `CNc1noc2c(-c3ccc4c(N[C@@H](C)COC)nncc4c3)c(C)ccc12` [Example 399, N-[(1S)-2-methoxy-1-methylethyl]-6-[6-methyl-3-(methylamino)-1,2-benzisoxazol-7-yl]phthalazin-1-amine] as the compound, how does the IC50 read?
A: ≤ 5 µM

Q: For `C[C@H]1COCCN1c1nncc2cc(-c3c(Cl)ccc4c(NCC(F)(F)F)noc34)ccc12` [Example 400, 6-chloro-7-{1-[(3S)-3-methylmorpholin-4-yl]phthalazin-6-yl}-N-(2,2,2-trifluoroethyl)-1,2-benzisoxazol-3-amine], which IC50 is on record?
A: ≤ 5 µM

Q: With `C[C@H]1COCCN1c1nncc2cc(-c3c(Cl)ccc4c(NC5CC5)noc34)ccc12` [Example 401, 6-chloro-N-cyclopropyl-7-{1-[(3S)-3-methylmorpholin-4-yl]phthalazin-6-yl}-1,2-benzisoxazol-3-amine] as the compound, how does the IC50 read?
A: ≤ 5 µM

Q: How did the IC50 turn out when `CC(C)Nc1noc2c(-c3ccc4c(N5CCOC[C@@H]5C)nncc4c3)c(Cl)ccc12` [Example 402, 6-chloro-N-isopropyl-7-{1-[(3S)-3-methylmorpholin-4-yl]phthalazin-6-yl}-1,2-benzisoxazol-3-amine] was run?
A: ≤ 5 µM

Q: Which IC50 does the source give for `CC(=O)Nc1noc2c(-c3ccc4c(N5CCOC[C@@H]5C)nncc4c3)c(C)ccc12` [Example 403, N-(6-methyl-7-{1-[(3S)-3-methylmorpholin-4-yl]phthalazin-6-yl}-1,2-benzisoxazol-3-yl)acetamide] here?
A: ≤ 5 µM

Q: Which IC50 does the source give for `Cc1ccc(C(=O)NC(C)C)cc1-c1ccc2c(NC(C)C)nncc2c1` [Example 404, N-isopropyl-3-[1-(isopropylamino)phthalazin-6-yl]-4-methylbenzamide] here?
A: ≤ 5 µM

Q: With `Cc1ccc(C(=O)NC(C)C)cc1-c1ccc2c(N3CCOCC3)nncc2c1` [Example 405, N-isopropyl-4-methyl-3-(1-morpholin-4-ylphthalazin-6-yl)benzamide] as the compound, how does the IC50 read?
A: ≤ 5 µM

Q: With `Cc1ccc(C(N)=O)cc1-c1ccc2c(Oc3ccccc3)nncc2c1` [Example 406, 4-methyl-3-(1-phenoxyphthalazin-6-yl)benzamide] as the compound, how does the IC50 read?
A: ≤ 5 µM

Q: Which IC50 does the source give for `Cc1ccc(C(N)=O)cc1-c1ccc2c(NCCO)nncc2c1` [Example 407, 3-{1-[(2-hydroxyethyl)amino]phthalazin-6-yl}-4-methylbenzamide] here?
A: ≤ 5 µM
